Assay results taken from DBAASP.
≈ marks a conversion by molar mass, not a printed value. Where “and” joins values, the source holds several entries; their conditions need not be identical. Equal entries are not always repeated. Values belong to the molecule of their own block, whether it stands above or below them.

Legend:
Test in all cases: ≥ marks a high value that may be exact or a test limit, other limits are often not marked, values filed in µg/mL are converted to µM
[1] = system: Bacillus subtilis IFO 3134
[2] = system: Escherichia coli IFO 12734
[3] = system: Pseudomonas aeruginosa IFO 12582
[4] = system: Staphylococcus aureus IFO 12732
[5] = system: Corynebacterium glutamicum ATCC 13032
[6] = system: Escherichia coli ATCC 25922
[7] = system: Escherichia coli HB101
[8] = system: Pseudomonas aeruginosa ATCC 27853
[9] = system: Staphylococcus aureus ATCC 9144
[10] = system: Escherichia coli NBRC 14237
[11] = system: Micrococcus luteus NBRC 12708
[12] = system: Pseudomonas aeruginosa NBRC 12582
[13] = system: Staphylococcus aureus NBRC 12732
[14] = system: Micrococcus luteus
[15] = system: Pseudomonas aeruginosa ATCC 15692
[16] = system: Saccharomyces cerevisiae
[17] = system: Staphylococcus aureus ATCC 25923
[18] = system: Acinetobacter calcoaceticus Ac11
[19] = system: Bacillus megaterium Bm11
[20] = system: Bacillus subtilis ATCC 6051
[21] = system: Escherichia coli D21
[22] = system: Micrococcus luteus ATCC 9341
[23] = system: Salmonella enterica subsp. enterica serovar Typhimurium LT2
[24] = system: Escherichia coli ML-35
[25] = system: Salmonella enterica subsp. enterica serovar Typhimurium ATCC 14028
[26] = system: Serratia marcescens ATCC 8100
[27] = system: Mycobacterium tuberculosis H37Rv
[28] = system: Mycobacterium tuberculosis

- MIC [1]: ≥ 64 µM
- MIC [2]: ≥ 64 µM
- MIC [3]: ≥ 64 µM
- MIC [4]: ≥ 64 µM
SMILES: CC[C@H](C)[C@H](NC(=O)[C@H](C)NC(=O)[C@@H]1CCCN1C(=O)[C@@H](NC(=O)[C@@H](NC(=O)[C@H](Cc1cnc[nH]1)NC(=O)[C@H](C)NC(=O)[C@H](C)NC(=O)[C@@H](NC(=O)[C@H](CCCCN)NC(=O)[C@H](C)NC(=O)[C@H](CC(C)C)NC(=O)[C@@H](NC(=O)CNC(=O)[C@H](Cc1ccccc1)NC(=O)[C@H](CC(C)C)NC(=O)CN)C(C)C)C(C)C)C(C)C)C(C)C)C(=O)N[C@@H](C)C(=O)N[C@@H](CCC(=O)O)C(N)=O [GLFGVLAKVAAHVVPAIAE]

- MIC [5]: 0.4 µM (≈ 1.29 µg/mL)
- MIC [6]: 1.13 µM (≈ 3.65 µg/mL)
- MIC [7]: 1.13 µM (≈ 3.65 µg/mL)
- MIC [8]: 4.42 µM (≈ 14.3 µg/mL)
- MIC [9]: ≥ 50 µM
SMILES: CC[C@H](C)[C@H](NC(=O)[C@H](CCCN=C(N)N)NC(=O)[C@@H]1CCCN1C(=O)[C@@H]1CCCN1C(=O)[C@H](CC(C)C)NC(=O)[C@H](CCCN=C(N)N)NC(=O)[C@@H]1CCCN1C(=O)[C@@H]1CCCN1C(=O)[C@H](Cc1ccccc1)NC(=O)[C@H](Cc1ccccc1)NC(=O)[C@@H]1CCCN1C(=O)[C@@H]1CCCN1C(=O)[C@@H]1CCCN1C(=O)[C@H](CCCN=C(N)N)NC(=O)[C@@H]1CCCN1C(=O)[C@H](CCCN=C(N)N)NC(=O)[C@@H]1CCCN1C(=O)[C@H](CC(C)C)NC(=O)[C@H](Cc1ccc(O)cc1)NC(=O)[C@@H]1CCCN1C(=O)[C@@H]1CCCN1C(=O)[C@H](CCCN=C(N)N)NC(=O)[C@@H]1CCCN1C(=O)[C@H](CCCN=C(N)N)NC(=O)[C@H](CCCN=C(N)N)NC(=O)[C@@H](N)CCCN=C(N)N)C(=O)O [RRRPRPPYLPRPRPPPFFPPRLPPRI]

- MIC [10]: 12.5 µM (≈ 18.7 µg/mL)
- MIC [11]: ≥ 50 µM
- MIC [12]: ≥ 50 µM
- MIC [13]: 12.5 µM (≈ 18.7 µg/mL)
SMILES: CC[C@H](C)[C@H](NC(=O)CNC(=O)[C@H](C)NC(=O)[C@H](CC(C)C)NC(=O)[C@H](CC(C)C)NC(=O)[C@H](CCCN=C(N)N)NC(=O)[C@@H]1CCCN1C(=O)[C@H](C)NC(=O)[C@H](CC(C)C)NC(=O)[C@H](CCCCN)NC(=O)[C@H](CC(C)C)NC(=O)[C@H](CC(C)C)NC(=O)[C@H](C)N)C(=O)N[C@@H](Cc1ccccc1)C(N)=O [ALLKLAPRLLAGIF]

- MIC [6]: 128 µM (≈ 235 µg/mL)
- MIC [10]: 12.5 µM (≈ 23 µg/mL)
- MIC [11]: ≥ 50 µM
- MIC [14]: 2 µM (≈ 3.68 µg/mL)
- MIC [15]: ≥ 256 µM
- MIC [12]: ≥ 50 µM
- MIC [16]: ≥ 64 µM
- MIC [17]: 32 µM (≈ 58.9 µg/mL)
- MIC [13]: 12.5 µM (≈ 23 µg/mL)
SMILES: CC(C)C[C@H](NC(=O)[C@H](CC(C)C)NC(=O)[C@H](CC(N)=O)NC(=O)[C@H](CO)NC(=O)CNC(=O)[C@@H](NC(=O)[C@H](CCCCN)NC(=O)[C@H](CC(C)C)NC(=O)CNC(=O)[C@@H](NC(=O)[C@H](CCCCN)NC(=O)[C@H](CC(C)C)NC(=O)[C@H](CC(C)C)NC(=O)[C@H](CO)NC(=O)CNC(=O)[C@H](CC(C)C)NC(=O)[C@H](CC(C)C)NC(=O)[C@@H](N)CC(N)=O)[C@@H](C)O)C(C)C)C(N)=O [NLLGSLLKTGLKVGSNLL]

- MIC [18]: ≥ 100 µM
- MIC [19]: ≥ 100 µM
- MIC [20]: ≥ 100 µM
- MIC [21]: ≥ 100 µM
- MIC [22]: ≥ 100 µM
- MIC [8]: > 100 µM
- MIC [23]: ≥ 100 µM
SMILES: CC[C@H](C)[C@H](N)C(=O)N[C@@H](CO)C(=O)N[C@@H](CO)C(=O)N1CCC[C@H]1C(=O)N[C@@H](CC(C)C)C(=O)N[C@@H](Cc1ccccc1)C(=O)N[C@@H](CCCCN)C(=O)N[C@H](C(=O)N[C@@H](CC(C)C)C(=O)N[C@@H](CC(C)C)C(=O)N[C@@H](CO)C(=O)N[C@@H](C)C(=O)N[C@H](C(=O)NCC(=O)N[C@@H](CO)C(=O)N[C@@H](C)C(=O)N[C@@H](CC(C)C)C(=O)N[C@@H](CO)C(=O)N[C@@H](CO)C(=O)N[C@@H](CO)C(=O)NCC(=O)NCC(=O)N[C@@H](CCC(N)=O)C(=O)N[C@@H](CCC(=O)O)C(=O)O)C(C)C)[C@@H](C)O [ISSPLFKTLLSAVGSALSSSGGQE]

- MIC [6]: > 128 µM
- MIC [7]: ≥ 90.5 µM
- MIC [24]: ≥ 128 µM
- MIC [25]: > 128 µM
- MIC [26]: ≥ 128 µM
- MIC [17]: > 128 µM
SMILES: CC[C@H](C)[C@H](NC(=O)[C@H](CCCN=C(N)N)NC(=O)[C@@H](N)CCCN=C(N)N)C(=O)N[C@@H](CCCN=C(N)N)C(=O)N1CCC[C@H]1C(=O)N[C@@H](CCCN=C(N)N)C(=O)N1CCC[C@H]1C(=O)N1CCC[C@H]1C(=O)N[C@@H](CCCN=C(N)N)C(=O)N[C@@H](CC(C)C)C(=O)N1CCC[C@H]1C(=O)N[C@@H](CCCN=C(N)N)C(=O)N1CCC[C@H]1C(=O)O [RRIRPRPPRLPRP]

SMILES: CC[C@H](C)[C@H](NC(=O)[C@H](CC(C)C)NC(=O)[C@H](CCCCN)NC(=O)[C@H](CC(C)C)NC(=O)[C@H](C)NC(=O)CNC(=O)[C@H](CCCCN)NC(=O)[C@H](C)NC(=O)[C@H](CC(C)C)NC(=O)[C@H](C)NC(=O)CNC(=O)[C@H](Cc1c[nH]c2ccccc12)NC(=O)[C@@H](N)Cc1ccccc1)C(=O)NCC(=O)N1CCC[C@H]1C(=O)NCC(=O)N[C@@H](CO)C(=O)N[C@@H](CC(C)C)C(=O)N[C@@H](Cc1ccccc1)C(=O)N[C@@H](CO)C(=O)N[C@@H](CO)C(=O)N[C@@H](Cc1ccccc1)C(=O)N[C@@H](CO)C(=O)N[C@@H](CCCCN)C(=O)N[C@@H](CCCCN)C(=O)N[C@@H](CC(=O)O)C(=O)O [FWGALAKGALKLIGPGSLFSSFSKKD]
- MIC [6]: 12.5 µM and 25 µM
- MIC [27]: 29.4 µM (≈ 80.1 µg/mL)
- MIC [28]: 17.6 µM (≈ 48.1 µg/mL)
- MIC [17]: 12.5 µM and 25 µM

- MIC [1]: 2 µM (≈ 4.27 µg/mL)
- MIC [2]: 8 µM (≈ 17.1 µg/mL)
- MIC [3]: 16 µM (≈ 34.2 µg/mL)
- MIC [4]: 4 µM (≈ 8.54 µg/mL)
SMILES: CC[C@H](C)[C@H](NC(=O)[C@H](C)NC(=O)[C@@H]1CCCN1C(=O)[C@@H](NC(=O)[C@@H](NC(=O)[C@H](CCCCN)NC(=O)[C@H](C)NC(=O)[C@H](C)NC(=O)[C@@H](NC(=O)[C@H](CCCCN)NC(=O)[C@H](C)NC(=O)[C@H](CC(C)C)NC(=O)[C@@H](NC(=O)CNC(=O)[C@H](Cc1ccccc1)NC(=O)[C@H](CC(C)C)NC(=O)CN)C(C)C)C(C)C)C(C)C)C(C)C)C(=O)N[C@@H](C)C(=O)N[C@@H](CCCCN)C(=O)N[C@@H](Cc1cnc[nH]1)C(=O)N[C@@H](Cc1ccccc1)C(N)=O [GLFGVLAKVAAKVVPAIAKHF]

- MIC [6]: > 128 µM
- MIC [24]: ≥ 128 µM
- MIC [25]: > 128 µM
- MIC [26]: ≥ 128 µM
- MIC [17]: > 128 µM
SMILES: CC[C@H](C)[C@H](NC(=O)[C@@H]1CCCN1C(=O)[C@H](CCCN=C(N)N)NC(=O)[C@@H]1CCCN1C(=O)CNC(=O)[C@@H]1CCCN1C(=O)[C@H](CCCN=C(N)N)NC(=O)[C@@H]1CCCN1C(=O)[C@H](Cc1ccccc1)NC(=O)[C@@H]1CCCN1C(=O)[C@H](CC(C)C)NC(=O)[C@@H]1CCCN1C(=O)[C@H](CCCN=C(N)N)NC(=O)[C@@H]1CCCN1C(=O)[C@@H](NC(=O)[C@@H]1CCCN1C(=O)[C@H](CCCN=C(N)N)NC(=O)[C@@H]1CCCN1C(=O)CNC(=O)[C@@H]1CCCN1C(=O)[C@H](CCCN=C(N)N)NC(=O)[C@@H]1CCCN1C(=O)[C@H](Cc1ccccc1)NC(=O)[C@@H]1CCCN1C(=O)[C@H](CC(C)C)NC(=O)[C@@H]1CCCN1C(=O)[C@H](CCCN=C(N)N)NC(=O)[C@@H]1CCCN1)[C@@H](C)CC)C(=O)O [PRPLPFPRPGPRPIPRPLPFPRPGPRPI]
